Results: ChEMBL document CHEMBL1131674, “Synthesis and cytotoxic activities of 6-chloro-7-arylamino-5,8-isoquinolinediones” (Bioorg Med Chem Lett, 1999)
In brackets after ≈: the same amount, converted by molar mass.

Tests used:
Type in all cases: functional, cell-based, Homo sapiens
[1] = system: A549; assay: In vitro cytotoxic activity against A 549 (non-small cell lung) using SRB (sulforhodamine B) assay
[2] = system: HCT-15; assay: In vitro cytotoxic activity against HCT-15 (colon) using SRB (sulforhodamine B) assay
[3] = system: SK-MEL-2; assay: In vitro cytotoxic activity against SK-MEL-2 (melanoma) using SRB (sulforhodamine B) assay
[4] = system: SK-OV-3; assay: In vitro cytotoxic activity against SK-OV-3 (ovarian) using SRB (sulforhodamine B) assay
[5] = system: XF498; assay: In vitro cytotoxic activity against XF 498 (CNS) using SRB (sulforhodamine B) assay
[6] = Homo sapiens, A549, read-out: IC50
[7] = Homo sapiens, HCT-15, read-out: IC50
[8] = Homo sapiens, SK-MEL-2, read-out: IC50
[9] = Homo sapiens, SK-OV-3, read-out: IC50
[10] = Homo sapiens, XF498, read-out: IC50

| Compound | IC50 [1, 6] | IC50 [2, 7] | IC50 [3, 8] | IC50 [4, 9] | IC50 [5, 10] | IC50 ([1]; a549) | IC50 ([2]; hct-15) | IC50 ([3]; sk-mel-2) | IC50 ([4]; sk-ov-3) | IC50 ([5]; xf498) |
| --- | --- | --- | --- | --- | --- | --- | --- | --- | --- | --- |
| CCOc1ccc(NC2=C(Cl)C(=O)c3cccnc3C2=O)cc1 | 0.96 µg/mL (≈ 2.92 µM) | 0.32 µg/mL (≈ 0.973 µM) | 0.34 µg/mL (≈ 1.03 µM) | 0.33 µg/mL (≈ 1 µM) | 0.55 µg/mL (≈ 1.67 µM) |  |  |  |  |  |
| CCOc1ccc(NC2=C(Cl)C(=O)c3ccncc3C2=O)cc1 | 0.42 µg/mL (≈ 1.28 µM) | 0.03 µg/mL (≈ 0.0913 µM) | 0.04 µg/mL (≈ 0.122 µM) | 0.34 µg/mL (≈ 1.03 µM) | 0.27 µg/mL (≈ 0.821 µM) |  |  |  |  |  |
| Cc1ccc(NC2=C(Cl)C(=O)c3ccncc3C2=O)cc1 | 1.22 µg/mL (≈ 4.08 µM) | 0.11 µg/mL (≈ 0.368 µM) | 0.17 µg/mL (≈ 0.569 µM) | 1.54 µg/mL (≈ 5.16 µM) | 1.06 µg/mL (≈ 3.55 µM) |  |  |  |  |  |
| O=C1C(Cl)=C(Nc2ccc(Cl)cc2)C(=O)c2ncccc21 | 5.03 µg/mL (≈ 15.8 µM) | 0.34 µg/mL (≈ 1.07 µM) | 1.3 µg/mL (≈ 4.07 µM) | 1.33 µg/mL (≈ 4.17 µM) | 3.31 µg/mL (≈ 10.4 µM) |  |  |  |  |  |
| Cc1ccc(NC2=C(Cl)C(=O)c3cccnc3C2=O)cc1 | 1.14 µg/mL (≈ 3.82 µM) | 0.33 µg/mL (≈ 1.1 µM) | 0.42 µg/mL (≈ 1.41 µM) | 1.27 µg/mL (≈ 4.25 µM) | 1.26 µg/mL (≈ 4.22 µM) |  |  |  |  |  |
| O=C1/C(=N/c2ccc(O)cc2)C(Cl)=C(O)c2cccnc21 | 1.56 µg/mL (≈ 5.19 µM) | 0.86 µg/mL (≈ 2.86 µM) | 0.47 µg/mL (≈ 1.56 µM) | 1.27 µg/mL (≈ 4.22 µM) | 0.97 µg/mL (≈ 3.23 µM) |  |  |  |  |  |
| N#Cc1ccc(NC2=C(Cl)C(=O)c3ccncc3C2=O)cc1 | 0.8 µg/mL (≈ 2.58 µM) | 0.13 µg/mL (≈ 0.42 µM) | 0.22 µg/mL (≈ 0.71 µM) | 0.21 µg/mL (≈ 0.678 µM) | 0.3 µg/mL (≈ 0.969 µM) |  |  |  |  |  |
| O=C1C(Cl)=C(Nc2ccc(CCO)cc2)C(=O)c2cnccc21 | 0.61 µg/mL (≈ 1.86 µM) | 0.18 µg/mL (≈ 0.548 µM) | 0.08 µg/mL (≈ 0.243 µM) | 0.63 µg/mL (≈ 1.92 µM) | 0.06 µg/mL (≈ 0.183 µM) |  |  |  |  |  |
| O=C1C(Cl)=C(Nc2ccccc2)C(=O)c2cnccc21 | 1.28 µg/mL (≈ 4.5 µM) | 0.1 µg/mL (≈ 0.351 µM) | 0.52 µg/mL (≈ 1.83 µM) | 0.86 µg/mL (≈ 3.02 µM) | 0.96 µg/mL (≈ 3.37 µM) |  |  |  |  |  |
| O=C1C(Cl)=C(Nc2ccc(Br)cc2)C(=O)c2ncccc21 | 4.28 µg/mL (≈ 11.8 µM) | 0.34 µg/mL (≈ 0.935 µM) | 1.26 µg/mL (≈ 3.47 µM) | 0.92 µg/mL (≈ 2.53 µM) | 2.83 µg/mL (≈ 7.78 µM) |  |  |  |  |  |
| O=C1C(Cl)=C(Nc2ccccc2)C(=O)c2ncccc21 | 2.3 µg/mL (≈ 8.08 µM) | 0.74 µg/mL (≈ 2.6 µM) | 1.42 µg/mL (≈ 4.99 µM) | 1.34 µg/mL (≈ 4.71 µM) | 1.33 µg/mL (≈ 4.67 µM) |  |  |  |  |  |
| O=C1C(Cl)=C(Nc2ccc(Cl)cc2)C(=O)c2cnccc21 | 1.27 µg/mL (≈ 3.98 µM) | 0.31 µg/mL (≈ 0.971 µM) | 1.22 µg/mL (≈ 3.82 µM) | 1.86 µg/mL (≈ 5.83 µM) | 1.54 µg/mL (≈ 4.83 µM) |  |  |  |  |  |
| COc1ccc(NC2=C(Cl)C(=O)c3cccnc3C2=O)cc1 | 1.27 µg/mL (≈ 4.04 µM) | 0.33 µg/mL (≈ 1.05 µM) | 1.33 µg/mL (≈ 4.23 µM) | 1.3 µg/mL (≈ 4.13 µM) | 1.26 µg/mL (≈ 4 µM) |  |  |  |  |  |
| O=C1C(Cl)=C(Nc2ccc(I)cc2)C(=O)c2cnccc21 | 1.96 µg/mL (≈ 4.77 µM) | 0.1 µg/mL (≈ 0.244 µM) | 0.23 µg/mL (≈ 0.56 µM) | 0.29 µg/mL (≈ 0.706 µM) | 0.22 µg/mL (≈ 0.536 µM) |  |  |  |  |  |
| O=C1C(Cl)=C(Nc2ccc(F)cc2)C(=O)c2cnccc21 | 0.66 µg/mL (≈ 2.18 µM) | 0.07 µg/mL (≈ 0.231 µM) | 0.13 µg/mL (≈ 0.429 µM) | 0.17 µg/mL (≈ 0.562 µM) | 0.49 µg/mL (≈ 1.62 µM) |  |  |  |  |  |
| O=C1C(Cl)=C(Nc2ccc(Br)cc2)C(=O)c2cnccc21 | 1.1 µg/mL (≈ 3.03 µM) | 0.18 µg/mL (≈ 0.495 µM) | 0.66 µg/mL (≈ 1.82 µM) | 0.97 µg/mL (≈ 2.67 µM) | 1.28 µg/mL (≈ 3.52 µM) |  |  |  |  |  |
| N#Cc1ccc(NC2=C(Cl)C(=O)c3cccnc3C2=O)cc1 | 1.7 µg/mL (≈ 5.49 µM) | 1.45 µg/mL (≈ 4.68 µM) | 0.6 µg/mL (≈ 1.94 µM) | 0.55 µg/mL (≈ 1.78 µM) | 1.47 µg/mL (≈ 4.75 µM) |  |  |  |  |  |
| O=C1C(Cl)=C(Nc2ccc(I)cc2)C(=O)c2ncccc21 | 4.29 µg/mL (≈ 10.4 µM) | 1.27 µg/mL (≈ 3.09 µM) | 3.3 µg/mL (≈ 8.04 µM) | 1.62 µg/mL (≈ 3.95 µM) | 3.61 µg/mL (≈ 8.79 µM) |  |  |  |  |  |
| O=C1/C(=N/c2ccc(O)cc2)C(Cl)=C(O)c2ccncc21 | 0.36 µg/mL (≈ 1.2 µM) | 0.05 µg/mL (≈ 0.166 µM) | 0.06 µg/mL (≈ 0.2 µM) | 0.3 µg/mL (≈ 0.998 µM) | 0.32 µg/mL (≈ 1.06 µM) |  |  |  |  |  |
| COc1ccc(NC2=C(Cl)C(=O)c3ccncc3C2=O)cc1 | 0.5 µg/mL (≈ 1.59 µM) | 0.02 µg/mL (≈ 0.0635 µM) | 0.02 µg/mL (≈ 0.0635 µM) | 0.28 µg/mL (≈ 0.89 µM) | 0.31 µg/mL (≈ 0.985 µM) |  |  |  |  |  |
| O=C1C(Cl)=C(Nc2ccc(F)cc2)C(=O)c2ncccc21 | 1.25 µg/mL (≈ 4.13 µM) | 0.18 µg/mL (≈ 0.595 µM) | 1.39 µg/mL (≈ 4.59 µM) | 0.5 µg/mL (≈ 1.65 µM) | 0.36 µg/mL (≈ 1.19 µM) |  |  |  |  |  |
| CCc1ccc(NC2=C(Cl)C(=O)c3cccnc3C2=O)cc1 | 1.35 µg/mL (≈ 4.32 µM) | 1.39 µg/mL (≈ 4.44 µM) | 1.97 µg/mL (≈ 6.3 µM) | 1.35 µg/mL (≈ 4.32 µM) | 0.66 µg/mL (≈ 2.11 µM) |  |  |  |  |  |
| CCc1ccc(NC2=C(Cl)C(=O)c3ccncc3C2=O)cc1 | 0.62 µg/mL (≈ 1.98 µM) | 0.05 µg/mL (≈ 0.16 µM) | 0.07 µg/mL (≈ 0.224 µM) | 0.34 µg/mL (≈ 1.09 µM) | 0.33 µg/mL (≈ 1.06 µM) |  |  |  |  |  |
| O=C1C(Cl)=C(Nc2ccc(CCO)cc2)C(=O)c2ncccc21 | 1.11 µg/mL (≈ 3.38 µM) | 0.48 µg/mL (≈ 1.46 µM) | 0.36 µg/mL (≈ 1.1 µM) | 0.42 µg/mL (≈ 1.28 µM) | 0.52 µg/mL (≈ 1.58 µM) |  |  |  |  |  |
| COC1=C(N)C(=O)c2nc(-c3nc(C(=O)O)c(C)c(-c4ccc(OC)c(OC)c4O)c3N)ccc2C1=O [STREPTONIGRIN] | 0.33 µg/mL (≈ 0.652 µM) | 0.02 µg/mL (≈ 0.0395 µM) | 0.02 µg/mL (≈ 0.0395 µM) | 0.28 µg/mL (≈ 0.553 µM) | 0.31 µg/mL (≈ 0.612 µM) |  |  |  |  |  |
| CISPLATIN |  |  |  |  |  | 1.8 µg/mL | 2.9 µg/mL | 1.38 µg/mL | 2.07 µg/mL | 2.74 µg/mL |
